Measurements published in patent US20110166112A1, “METHOD FOR STIMULATING PLATELET PRODUCTION” (Eisai, Inc., priority 2009, published 2011).

Tested on: subjects with chronic ITP
Experiment: Combined 28-day and 6-month rollover studies of E5501: safety (TEAEs, serious TEAEs, thromboembolic events, neoplasms, liver toxicity, discontinuations)
Assay type: in vivo, human
Description: Primary Endpoint: The primary endpoint was to assess the safety and tolerability to E5501, including AEs and clinical laboratory parameters, over the 6 additional months of treatment.
In this way, safety data reflect each subject's complete duration of exposure to E5501 starting with lead-in the previous study and continuing into the current study.
Following Protocol Amendment 4, the current study contained a flexible dose regimen; therefore, this study was considered to have an open-label, uncontrolled, single-arm design. […] This was the method used to assess safety. • Grouping method B was based on both treatment received and day 28 platelet response to study drug in Study the previous study. This was the method used for the analysis of efficacy for the FAS and the SE population.
Overall Adverse Events. […] The primary focus is on summary statistics for the entire safety population and provides an overall safety profile for E5501. The summary statistics for each group, e.g., lower ⅓, middle ⅓ and upper ⅓ average daily dose levels, is secondary and provides further safety information across the 3 dose levels.

[1] = Middle ⅓ dose (≧8.85-<13.5 mg), N=22
[2] = Safety Population, Middle ⅓ Mean Daily Dose Level (≧8.85-<13.5 mg)
[3] = Upper ⅓ dose (≧13.5-≦25.7 mg), N=20
[4] = combined studies, E5501-treated subjects overall
[5] = one subject, 5 mg/day, approximately 21 days after initiation, grade 2
[6] = one subject, 20 mg/day, approximately 164 days after initiation, grade 3

## O=C(Nc1nc(-c2cc(Cl)cs2)c(N2CCN(C3CCCCC3)CC2)s1)c1cnc(N2CCC(C(=O)O)CC2)c(Cl)c1 [E5501, 1-(3-chloro-5-{[4-(4-chlorothiophen-2-yl)-5-(4-cyclohexylpiperazin-1-yl)thiazol-2-yl]carbamoyl}pyridine-2-yl)piperidine-4-carboxylic acid]
[1]
  Vomiting, % of subjects: (9.1) %
  Vomiting, n of subjects: 2
  Withdrawal due to TEAE, % of subjects: (9.1) %
  Withdrawal due to TEAE, n of subjects: 2
Safety Population, Lower ⅓ Mean Daily Dose Level (2.5-<8.85 mg)
  Discontinuation in 501-CL-003, PC increase to ≧500,000/mm^3: 0 n
[2]
  Discontinuation in 501-CL-003, PC increase to ≧500,000/mm^3: 0 n
  Discontinuation in 501-CL-004, PC increase to ≧500,000/mm^3: 0 n
Safety Population, Upper ⅓ Mean Daily Dose Level (≧13.5-≦25.7 mg)
  Discontinuation in 501-CL-003, Adverse Event or SAE: 0 n
Total E5501, N=64
  Abdominal pain upper, % of subjects: (4.7) %
  Abdominal pain upper, n of subjects: 3
  Any TEAE, % of subjects: (96.9) %
  Any TEAE, n of subjects: 62
  Arthralgia, % of subjects: (14.1) %
  Arthralgia, n of subjects: 9
  Asthenia, % of subjects: (6.3) %
  Asthenia, n of subjects: 4
  Back pain, % of subjects: (9.4) %
  Back pain, n of subjects: 6
  Constipation, % of subjects: (4.7) %
  Constipation, n of subjects: 3
  Contusion, % of subjects: (18.8) %
  Contusion, n of subjects: 12
  Cough, % of subjects: (4.7) %
  Cough, n of subjects: 3
  Deaths, n of subjects: 0
  Diarrhoea, % of subjects: (14.1) %
  Diarrhoea, n of subjects: 9
  Dizziness, % of subjects: (7.8) %
  Dizziness, n of subjects: 5
  Dose interruption due to TEAE, % of subjects: (12.5) %
  Dose interruption due to TEAE, n of subjects: 8
  Dyspnoea, % of subjects: (9.4) %
  Dyspnoea, n of subjects: 6
  Ecchymosis, % of subjects: (6.3) %
  Ecchymosis, n of subjects: 4
  Epistaxis, % of subjects: (23.4) %
  Epistaxis, n of subjects: 15
  Fatigue, % of subjects: (34.4) %
  Fatigue, n of subjects: 22
  Gingival bleeding, % of subjects: (10.9) %
  Gingival bleeding, n of subjects: 7
  Headache, % of subjects: (32.8) %
  Headache, n of subjects: 21
  Insomnia, % of subjects: (7.8) %
  Insomnia, n of subjects: 5
  Migraine, % of subjects: (4.7) %
  Migraine, n of subjects: 3
  Mouth haemorrhage, % of subjects: (3.1) %
  Mouth haemorrhage, n of subjects: 2
  Nausea, % of subjects: (9.4) %
  Nausea, n of subjects: 6
  Pain in extremity, % of subjects: (9.4) %
  Pain in extremity, n of subjects: 6
  Petechiae, % of subjects: (9.4) %
  Petechiae, n of subjects: 6
  Platelet count increased, % of subjects: (9.4) %
  Platelet count increased, n of subjects: 6
  Serious TEAE, % of subjects: (7.8) %
  Serious TEAE, n of subjects: 5
  Serious treatment-related TEAEs, % of subjects: (3.1) %
  Serious treatment-related TEAEs, n of subjects: 2
  Severe (grade 3-4) TEAEs, % of subjects: (25.0) %
  Severe (grade 3-4) TEAEs, n of subjects: 16
  Somnolence, % of subjects: (3.1) %
  Somnolence, n of subjects: 2
  Suspected drug-related AEs, % of subjects: (64.1) %
  Suspected drug-related AEs, n of subjects: 41
  Upper respiratory tract infection, % of subjects: (9.4) %
  Upper respiratory tract infection, n of subjects: 6
  Vomiting, % of subjects: (10.0) %
  Vomiting, n of subjects: 7
  Withdrawal due to TEAE, % of subjects: (10.9) %
  Withdrawal due to TEAE, n of subjects: 7
[3]
  Abdominal pain upper, % of subjects: (15.0) %
  Abdominal pain upper, n of subjects: 3
  Any Serious TEAE, n (%) of subjects: 1 (5.0) n (%)
  Any TEAE, % of subjects: (100.0) %
  Any TEAE, n of subjects: 20
  Arthralgia, % of subjects: (20.0) %
  Arthralgia, n of subjects: 4
  Asthenia, % of subjects: (5.0) %
  Asthenia, n of subjects: 1
  Back pain, % of subjects: (15.0) %
  Back pain, n of subjects: 3
  Constipation, n of subjects: 0
  Contusion, % of subjects: (30.0) %
  Contusion, n of subjects: 6
  Cough, % of subjects: (10.0) %
  Cough, n of subjects: 2
  Deaths, n of subjects: 0
  Diarrhoea, % of subjects: (25.0) %
  Diarrhoea, n of subjects: 5
  Dizziness, % of subjects: (15.0) %
  Dizziness, n of subjects: 3
  Dose interruption due to TEAE, % of subjects: (10.0) %
  Dose interruption due to TEAE, n of subjects: 2
  Dyspnoea, % of subjects: (5.0) %
  Dyspnoea, n of subjects: 1
  Ecchymosis, % of subjects: (10.0) %
  Ecchymosis, n of subjects: 2
  Epistaxis, % of subjects: (40.0) %
  Epistaxis, n of subjects: 8
  Fatigue, % of subjects: (35.0) %
  Fatigue, n of subjects: 7
  Gingival bleeding, % of subjects: (20.0) %
  Gingival bleeding, n of subjects: 4
  Headache, % of subjects: (40.0) %
  Headache, n of subjects: 8
  Insomnia, % of subjects: (5.0) %
  Insomnia, n of subjects: 1
  Migraine, % of subjects: (10.0) %
  Migraine, n of subjects: 2
  Mouth haemorrhage, % of subjects: (10.0) %
  Mouth haemorrhage, n of subjects: 2
  Nausea, % of subjects: (20.0) %
  Nausea, n of subjects: 4
  Pain in extremity, % of subjects: (10.0) %
  Pain in extremity, n of subjects: 2
  Petechiae, % of subjects: (10.0) %
  Petechiae, n of subjects: 2
  Platelet count increased, % of subjects: (10.0) %
  Platelet count increased, n of subjects: 2
  Serious TEAE Cerebrovascular accident, n (%) of subjects: 1 (5.0) n (%)
  Serious TEAE Chest pain, n (%) of subjects: 1 (5.0) n (%)
  Serious TEAE Diarrhoea, n (%) of subjects: 1 (5.0) n (%)
  Serious TEAE Haemorrhage intracranial, n (%) of subjects: 0 n (%)
  Serious TEAE Lethargy, n (%) of subjects: 0 n (%)
  Serious TEAE Mitral valve incompetence, n (%) of subjects: 1 (5.0) n (%)
  Serious TEAE Myocardial infarction, n (%) of subjects: 0 n (%)
  Serious TEAE Nausea, n (%) of subjects: 0 n (%)
  Serious TEAE Pelvic venous thrombosis, n (%) of subjects: 0 n (%)
  Serious TEAE Platelet count decreased, n (%) of subjects: 0 n (%)
  Serious TEAE Pneumonia, n (%) of subjects: 0 n (%)
  Serious TEAE Pyrexia, n (%) of subjects: 1 (5.0) n (%)
  Serious TEAE Thrombocytopenia, n (%) of subjects: 0 n (%)
  Serious TEAE Transient ischaemic attack, n (%) of subjects: 0 n (%)
  Serious TEAE Vomiting, n (%) of subjects: 1 (5.0) n (%)
  Serious TEAE, % of subjects: (5.0) %
  Serious TEAE, SOC Blood and lymphatic system disorders, n (%) of subjects: 0 n (%)
  Serious TEAE, SOC Cardiac disorders, n (%) of subjects: 1 (5.0) n (%)
  Serious TEAE, SOC Gastrointestinal disorders, n (%) of subjects: 1 (5.0) n (%)
  Serious TEAE, SOC General disorders and administration site conditions, n (%) of subjects: 1 (5.0) n (%)
  Serious TEAE, SOC Infections and infestations, n (%) of subjects: 0 n (%)
  Serious TEAE, SOC Investigations, n (%) of subjects: 0 n (%)
  Serious TEAE, SOC Nervous system disorders, n (%) of subjects: 1 (5.0) n (%)
  Serious TEAE, SOC Vascular disorders, n (%) of subjects: 0 n (%)
  Serious TEAE, n of subjects: 1
  Serious treatment-related TEAEs, n of subjects: 0
  Severe (grade 3-4) TEAEs, % of subjects: (35.0) %
  Severe (grade 3-4) TEAEs, n of subjects: 7
  Somnolence, % of subjects: (10.0) %
  Somnolence, n of subjects: 2
  Suspected drug-related AEs, % of subjects: (65.0) %
  Suspected drug-related AEs, n of subjects: 13
  Upper respiratory tract infection, % of subjects: (15.0) %
  Upper respiratory tract infection, n of subjects: 3
  Vomiting, % of subjects: (20.0) %
  Vomiting, n of subjects: 4
  Withdrawal due to TEAE, % of subjects: (10.0) %
  Withdrawal due to TEAE, n of subjects: 2
Both studies combined
  treated subjects with thromboembolic events: approximately 6%
Both studies combined, doses of 10 mg/day or higher
  subjects with thromboembolic events: 4 subjects
Combined studies
  subjects with TEAE possibly or probably treatment related: 64.1%
  subjects with TEAEs that led to interruption of study treatment: 8 subjects
  subjects with TEAEs that led to premature discontinuation of study treatment: Seven
Combined studies, 64 subjects
  subjects who experienced one or more TEAEs: 96.9%
[4]
  Epistaxis: 23.4%
  Fatigue: 34.4%
  Headache: 32.8%
  Vomiting: 10.9%
  arthralgia: 14.1%
  contusion: 18.8%
  diarrhea: 14.1%
  gingival bleeding: 10.9%
Combined studies, all
  serious TEAEs: 16 cases
  subjects reporting serious TEAEs: Five
During the study
  deaths: No deaths occurred
During this study
  neoplastic events of interest: Three
Lower ⅓ dose level group
  serious TEAEs: 1 cases
  subjects reporting serious TEAEs: 1 subjects
Middle ⅓ dose level group
  serious TEAEs: 9 cases
  subjects reporting serious TEAEs: 3 subjects
[5]
  serum ALT: 210 U/L
  serum AST: 143 U/L
[6]
  ALT: 421 U/L
  AST: 431 U/L
Upper ⅓ dose level group
  serious TEAEs: 6 cases
  subjects reporting serious TEAEs: 1 subjects
